According to patent US20140206633A1, “PROCESS FOR THE PREPARATION OF ISOXAZOLINE DERIVATIVES” (SYNGENTA CROP PROTECTION LLC, priority 2010, published 2014):

| melting point | Compound |
| --- | --- |
| 162 to 165 °C (dec.) | C=CC1C[N+]2(Cc3c(F)c(F)c(F)c(F)c3F)CCC1C[C@H]2[C@H](O)c1ccnc2ccc(OC)cc12.[Br-] (some centres unmarked) |
| 150 to 152 °C (dec.) | C=CC1C[N+]2(Cc3c4ccccc4cc4ccccc34)CCC1C[C@H]2[C@H](O)c1ccnc2ccc(OC)cc12.[Cl-] (some centres unmarked) |
